In patent publication US12264156B2, “Compounds and pharmaceutical compositions thereof for the treatment of diseases” (GALAPAGOS NV, priority 2018, dated 2025):
pIC50: −log10 of the molar value.

Legend:
Format in all cases: biochemical
Details in all cases: ADP-Glo SIK kinase assay
SIK2 = biological target: T1, SIK2 (Homo sapiens, UniProt Q9H0K1); test: ADP-Glo kinase assay, SIK2
T1 construct: purchased ThermoFisher Scientific PV4792
In short: (§1)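 ADP-Glo, RT throughout. Enz/substrate + ATP, 120 min; ADP-Glo reagent 40 min (ATP depletion); detection reagent 30 min; luminescence read. Neg ctrl 1% DMSO, pos ctrl 10 μM staurosporine, final concs.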

SIK1 = biological target: T2, SIK1 (Homo sapiens, UniProt P57059); test: ADP-Glo kinase assay, SIK1
T2 construct: purchased Carna Biosciences 02-131
In short: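 Wells with 1% DMSO or 10 μM staurosporine (final) define the control window. The kinase reaction with substrate and ATP runs 120 min at RT, followed by ADP-Glo detection: ATP depletion (40 min) and ADP-derived luminescence (30 min).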

SIK3 = biological target: T3, SIK3 (Homo sapiens, UniProt Q9Y2K2); test: ADP-Glo kinase assay, SIK3
T3 construct: purchased SignalChem S12-11G-100
In short: as §1

T1 sequence (Q9H0K1 whole entry): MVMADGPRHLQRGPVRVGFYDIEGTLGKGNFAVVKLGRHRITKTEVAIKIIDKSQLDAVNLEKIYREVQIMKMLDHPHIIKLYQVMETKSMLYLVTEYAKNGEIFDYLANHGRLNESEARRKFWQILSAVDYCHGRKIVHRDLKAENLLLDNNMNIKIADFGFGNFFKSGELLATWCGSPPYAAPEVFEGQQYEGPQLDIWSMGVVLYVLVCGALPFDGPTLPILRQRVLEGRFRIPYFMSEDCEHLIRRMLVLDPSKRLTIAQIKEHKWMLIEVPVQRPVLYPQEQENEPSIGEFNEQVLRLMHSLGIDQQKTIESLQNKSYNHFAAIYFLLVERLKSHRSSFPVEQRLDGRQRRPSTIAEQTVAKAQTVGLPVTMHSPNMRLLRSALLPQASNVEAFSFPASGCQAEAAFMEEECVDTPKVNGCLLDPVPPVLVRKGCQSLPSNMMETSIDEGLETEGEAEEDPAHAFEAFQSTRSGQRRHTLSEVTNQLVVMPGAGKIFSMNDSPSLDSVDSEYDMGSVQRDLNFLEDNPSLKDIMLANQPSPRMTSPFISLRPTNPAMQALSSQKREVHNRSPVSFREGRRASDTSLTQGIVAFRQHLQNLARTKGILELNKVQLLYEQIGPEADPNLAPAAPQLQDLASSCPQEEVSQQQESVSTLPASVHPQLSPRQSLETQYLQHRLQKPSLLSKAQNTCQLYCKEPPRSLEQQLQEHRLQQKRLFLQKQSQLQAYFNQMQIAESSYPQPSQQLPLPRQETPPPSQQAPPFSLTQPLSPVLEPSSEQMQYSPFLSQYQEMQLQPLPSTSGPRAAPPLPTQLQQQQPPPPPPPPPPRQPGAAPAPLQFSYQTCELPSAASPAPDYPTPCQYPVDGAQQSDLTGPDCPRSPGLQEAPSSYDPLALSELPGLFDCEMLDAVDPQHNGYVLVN
T3 sequence (Q9Y2K2 whole entry): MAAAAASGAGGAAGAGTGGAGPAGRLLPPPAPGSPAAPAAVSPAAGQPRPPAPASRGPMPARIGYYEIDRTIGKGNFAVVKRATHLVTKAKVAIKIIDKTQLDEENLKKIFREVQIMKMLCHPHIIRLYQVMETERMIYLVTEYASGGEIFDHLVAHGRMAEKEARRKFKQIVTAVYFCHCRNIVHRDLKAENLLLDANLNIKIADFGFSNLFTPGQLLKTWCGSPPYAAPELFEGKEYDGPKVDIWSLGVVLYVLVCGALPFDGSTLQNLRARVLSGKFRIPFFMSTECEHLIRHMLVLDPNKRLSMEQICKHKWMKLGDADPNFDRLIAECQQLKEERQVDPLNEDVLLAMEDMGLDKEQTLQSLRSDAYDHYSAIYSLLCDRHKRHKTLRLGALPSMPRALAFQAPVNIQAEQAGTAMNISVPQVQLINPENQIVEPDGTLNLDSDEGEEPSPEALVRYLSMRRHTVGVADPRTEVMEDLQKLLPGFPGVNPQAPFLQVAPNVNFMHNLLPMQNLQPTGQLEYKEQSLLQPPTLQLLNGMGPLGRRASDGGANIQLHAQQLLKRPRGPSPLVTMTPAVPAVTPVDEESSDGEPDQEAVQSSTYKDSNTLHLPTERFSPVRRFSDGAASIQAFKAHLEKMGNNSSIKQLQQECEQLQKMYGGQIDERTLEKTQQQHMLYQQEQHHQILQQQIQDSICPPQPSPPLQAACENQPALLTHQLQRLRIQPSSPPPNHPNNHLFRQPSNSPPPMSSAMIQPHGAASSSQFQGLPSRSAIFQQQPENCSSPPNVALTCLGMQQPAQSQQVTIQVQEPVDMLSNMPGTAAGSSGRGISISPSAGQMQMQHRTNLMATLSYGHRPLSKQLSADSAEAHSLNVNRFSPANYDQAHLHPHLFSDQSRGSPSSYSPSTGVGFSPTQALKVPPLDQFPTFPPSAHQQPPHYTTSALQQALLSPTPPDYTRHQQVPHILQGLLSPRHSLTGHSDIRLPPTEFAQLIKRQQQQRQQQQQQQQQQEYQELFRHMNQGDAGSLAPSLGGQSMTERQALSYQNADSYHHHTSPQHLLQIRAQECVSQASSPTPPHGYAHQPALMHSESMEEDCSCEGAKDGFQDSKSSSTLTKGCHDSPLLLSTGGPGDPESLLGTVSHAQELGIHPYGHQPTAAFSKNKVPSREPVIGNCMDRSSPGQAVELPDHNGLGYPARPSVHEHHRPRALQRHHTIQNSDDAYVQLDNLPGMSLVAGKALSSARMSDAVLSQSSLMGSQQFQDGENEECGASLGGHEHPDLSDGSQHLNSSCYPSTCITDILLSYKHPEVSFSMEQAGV
T2 sequence (P57059 whole entry): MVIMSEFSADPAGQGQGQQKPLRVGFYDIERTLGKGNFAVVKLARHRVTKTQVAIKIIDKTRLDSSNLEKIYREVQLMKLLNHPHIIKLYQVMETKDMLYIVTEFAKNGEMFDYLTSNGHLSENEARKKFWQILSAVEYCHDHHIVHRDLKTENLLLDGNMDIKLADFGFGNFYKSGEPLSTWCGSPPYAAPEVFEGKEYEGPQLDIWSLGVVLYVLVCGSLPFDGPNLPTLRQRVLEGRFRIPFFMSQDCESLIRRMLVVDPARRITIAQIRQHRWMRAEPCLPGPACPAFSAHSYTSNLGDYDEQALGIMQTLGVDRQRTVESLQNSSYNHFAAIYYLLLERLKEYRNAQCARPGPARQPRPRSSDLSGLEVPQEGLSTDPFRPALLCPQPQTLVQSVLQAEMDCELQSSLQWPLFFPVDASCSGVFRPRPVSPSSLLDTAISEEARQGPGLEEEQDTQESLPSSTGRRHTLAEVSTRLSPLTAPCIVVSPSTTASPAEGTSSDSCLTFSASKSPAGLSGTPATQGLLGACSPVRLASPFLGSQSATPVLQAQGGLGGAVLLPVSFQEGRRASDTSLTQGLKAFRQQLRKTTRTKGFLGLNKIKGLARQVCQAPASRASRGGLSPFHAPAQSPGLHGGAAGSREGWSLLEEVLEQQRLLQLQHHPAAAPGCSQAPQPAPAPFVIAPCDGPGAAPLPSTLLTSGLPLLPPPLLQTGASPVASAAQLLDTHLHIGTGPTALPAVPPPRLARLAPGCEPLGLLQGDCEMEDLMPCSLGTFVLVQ

Row | pIC50 (SIK2) | pIC50 (SIK1) | pIC50 (SIK3) | Compound
1 | 8.00 to 11.00 | 7.00 to 8.00 | 8.00 to 11.00 | COc1cc(-c2cnc3cc(OCC(C)(C)C#N)ccn23)cc(OC(F)F)c1C(=O)NC1CC1 [compound 34, 4-[7-(2-cyano-2-methyl-propoxy)imidazo[1,2-a]pyridin-3-yl]-N-cyclopropyl-2-(difluoromethoxy)-6-methoxy-benzamide]
2 | 7.00 to 8.00 | < 6.30 | 7.00 to 8.00 | CCN1CCc2cc(-c3cnc4cc(OCCN(C)C)ccn34)cc(OC)c2C1=O [compound 53, 6-[7-[2-(dimethylamino)ethoxy]imidazo[1,2-a]pyridin-3-yl]-2-ethyl-8-methoxy-3,4-dihydroisoquinolin-1-one]
3 | 8.00 to 11.00 | 7.00 to 8.00 | 8.00 to 11.00 | COc1cc(-c2cnc3cc(OCCCN4CCn5ccnc5C4)ccn23)cc(OC(F)F)c1C(=O)NC1CC1 [compound 312, N-cyclopropyl-2-(difluoromethoxy)-4-[7-[3-(6,8-dihydro-5H-imidazo[1,2-a]pyrazin-7-yl)propoxy]imidazo[1,2-a]pyridin-3-yl]-6-methoxy-benzamide]
4 | 8.00 to 11.00 | 7.00 to 8.00 | 8.00 to 11.00 | COc1cc(-c2cnc3cc(OCC4COCCN4)ccn23)cc(OC(F)F)c1C(=O)NC1CC1 (stereo not drawn) [Cpd 113, N-cyclopropyl-2-(difluoromethoxy)-6-methoxy-4-[7-(morpholin-3-ylmethoxy)imidazo[1,2-a]pyridin-3-yl]benzamide]
5 | 8.00 to 11.00 | 7.00 to 8.00 | 8.00 to 11.00 | COc1cc(-c2cnc3cc(OCCCN4CCc5ncccc5C4)ccn23)cc(OC(F)F)c1C(=O)NC1CC1 [compound 311, N-cyclopropyl-2-(difluoromethoxy)-4-[7-[3-(7,8-dihydro-5H-1,6-naphthyridin-6-yl)propoxy]imidazo[1,2-a]pyridin-3-yl]-6-methoxy-benzamide]
6 | 8.00 to 11.00 | 8.00 to 11.00 | 8.00 to 11.00 | COc1cc(-c2cnc3cc(OCC4CCC(=O)N4)ccn23)cc(OC(F)F)c1C(=O)NC1CC1 (stereo not drawn) [compound 99, N-cyclopropyl-2-(difluoromethoxy)-6-methoxy-4-[7-[(5-oxopyrrolidin-2-yl)methoxy]imidazo[1,2-a]pyridin-3-yl]benzamide]
7 | 8.00 to 11.00 | 6.30 to 7.00 | 8.00 to 11.00 | CCn1ccnc1COc1ccn2c(-c3cc(OC)c(C(=O)NC4CC4)c(OC(F)F)c3)cnc2c1 [Cpd 173, N-cyclopropyl-2-(difluoromethoxy)-4-[7-[(1-ethylimidazol-2-yl)methoxy]imidazo[1,2-a]pyridin-3-yl]-6-methoxy-benzamide]
8 | 6.30 to 7.00 | < 6.30 | 6.30 to 7.00 | COc1cc(-c2cnc3cc(OC[C@H]4COCCO4)ccn23)cnc1C(=O)NCC(F)(F)F [compound 265, 5-[7-[[(2R)-1,4-dioxan-2-yl]methoxy]imidazo[1,2-a]pyridin-3-yl]-3-methoxy-N-(2,2,2-trifluoroethyl)pyridine-2-carboxamide]
9 | 7.00 to 8.00 | < 6.30 | 7.00 to 8.00 | COc1cc(-c2cnc3cc(OC4CCN(C)C4)ccn23)cc(OC(F)F)c1C(=O)NC1CC1 (stereo not drawn) [compound 15, N-cyclopropyl-2-(difluoromethoxy)-6-methoxy-4-[7-(1-methylpyrrolidin-3-yl)oxyimidazo[1,2-a]pyridin-3-yl]benzamide]
10 | 8.00 to 11.00 | 7.00 to 8.00 | 8.00 to 11.00 | COc1cc(-c2cnc3cc(OCCC4CC(F)(F)C4)ccn23)cc(OC(F)F)c1C(=O)NC1CC1 [compound 76, N-cyclopropyl-4-[7-[2-(3,3-difluorocyclobutyl)ethoxy]imidazo[1,2-a]pyridin-3-yl]-2-(difluoromethoxy)-6-methoxy-benzamide]
11 | 8.00 to 11.00 | 7.00 to 8.00 | 8.00 to 11.00 | COC(=O)C1(COc2ccn3c(-c4cc(OC)c(C(=O)NC5CC5)c(OC(F)F)c4)cnc3c2)CC1 [compound 57, methyl 1-[[3-[4-(cyclopropylcarbamoyl)-3-(difluoromethoxy)-5-methoxy-phenyl]imidazo[1,2-a]pyridin-7-yl]oxymethyl] cyclopropanecarboxylate]
12 | 8.00 to 11.00 | 7.00 to 8.00 | 8.00 to 11.00 | COc1cc(-c2cnc3cc(OCCN4CC(F)(F)C4)ccn23)cc(OC(F)F)c1C(=O)NC1CC1 [compound 186, N-cyclopropyl-4-[7-[2-(3,3-difluoroazetidin-1-yl)ethoxy]imidazo[1,2-a]pyridin-3-yl]-2-(difluoromethoxy)-6-methoxy-benzamide]
13 | 8.00 to 11.00 | 7.00 to 8.00 | 8.00 to 11.00 | COc1cc(-c2cnc3cc(OCc4nccs4)ccn23)cc(OC(F)F)c1C(=O)NC1CC1 [compound 47, N-cyclopropyl-2-(difluoromethoxy)-6-methoxy-4-[7-(thiazol-2-ylmethoxy)imidazo[1,2-a]pyridin-3-yl]benzamide]
14 | 8.00 to 11.00 | 7.00 to 8.00 | 8.00 to 11.00 | COc1cc(-c2cnc3cc(OCC4COCCO4)ccn23)cc(OC(F)F)c1C(=O)NC1CC1 (stereo not drawn) [compound 98, N-cyclopropyl-2-(difluoromethoxy)-4-[7-(1,4-dioxan-2-ylmethoxy)imidazo[1,2-a]pyridin-3-yl]-6-methoxy-benzamide]
15 | 8.00 to 11.00 | 7.00 to 8.00 | 8.00 to 11.00 | COc1cc(-c2cnc3cc(OCCN4CCOCC4C)ccn23)cc(OC(F)F)c1C(=O)NC1CC1 (stereo not drawn) [compound 232, N-cyclopropyl-2-(difluoromethoxy)-6-methoxy-4-[7-[2-(3-methylmorpholin-4-yl)ethoxy]imidazo [1,2-a]pyridin-3-yl]benzamide]
16 | 8.00 to 11.00 | 7.00 to 8.00 | 8.00 to 11.00 | COc1cc(-c2cnc3cc(OCc4ccccn4)ccn23)cc(OC(F)F)c1C(=O)NC1CC1 [compound 105, N-cyclopropyl-2-(difluoromethoxy)-6-methoxy-4-[7-(2-pyridylmethoxy)imidazo [1,2-a]pyridin-3-yl]benzamide]
17 | 8.00 to 11.00 | 7.00 to 8.00 | 8.00 to 11.00 | COc1cc(-c2cnc3cc(OCC4CC(=O)N(C)C4)ccn23)cc(OC(F)F)c1C(=O)NC1CC1 (stereo not drawn) [compound 26, N-cyclopropyl-2-(difluoromethoxy)-6-methoxy-4-[7-[(1-methyl-5-oxo-pyrrolidin-3-yl)methoxy]imidazo[1,2-a]pyridin-3-yl]benzamide]
18 | 8.00 to 11.00 | 7.00 to 8.00 | 8.00 to 11.00 | COc1cc(-c2cnc3cc(OCCCN4CC5(CC(O)C5)C4)ccn23)cc(OC(F)F)c1C(=O)NC1CC1 [compound 297, N-cyclopropyl-2-(difluoromethoxy)-4-[7-[3-(6-hydroxy-2-azaspiro[3.3]heptan-2-yl)propoxy]imidazo[1,2-a]pyridin-3-yl]-6-methoxy-benzamide]
19 | 8.00 to 11.00 | 8.00 to 11.00 | 8.00 to 11.00 | COc1cc(-c2cnc3cc(OCCN4CCCC(F)(F)C4)ccn23)cc(OC(F)F)c1C(=O)NC1CC1 [compound 211, N-cyclopropyl-2-(difluoromethoxy)-4-[7-[2-(3,3-difluoro-1-piperidyl)ethoxy]imidazo [1,2-a]pyridin-3-yl]-6-methoxy-benzamide]
20 | 8.00 to 11.00 | 7.00 to 8.00 | 8.00 to 11.00 | COc1cc(-c2cnc3cc(OCC4CN(C)CCO4)ccn23)cc(OC(F)F)c1C(=O)NC1CC1 (stereo not drawn) [compound 82, N-cyclopropyl-2-(difluoromethoxy)-6-methoxy-4-[7-[(4-methylmorpholin-2-yl)methoxy]imidazo[1,2-a]pyridin-3-yl]benzamide]
